Values joined by “and” are separate entries in the source; they are usually repeats but may differ in a detail not shown here. Equal values may be shown once.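 48-hour exposure; five concentrations; linearly interpolated endpoints. Here, GI50 denotes the concentration required for 50% inhibition of growth. TGI marks complete inhibition of growth.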
Tests used:
Experiment in all cases: DTP human tumour cell line panel, 48 h
KM12 colon = system: KM12 colon
RPMI-8226 leukemia = system: RPMI-8226 leukemia
SR leukemia = system: SR leukemia
RXF 393 renal = system: RXF 393 renal
HCT-116 colon = system: HCT-116 colon
UACC-257 melanoma = system: UACC-257 melanoma
NCI-H460 lung = system: NCI-H460 lung
OVCAR-5 ovarian = system: OVCAR-5 ovarian
M14 melanoma = system: M14 melanoma
SK-OV-3 ovarian = system: SK-OV-3 ovarian

SMILES	TGI (KM12 colon)	TGI (RPMI-8226 leukemia)	TGI (SR leukemia)	TGI (RXF 393 renal)	TGI (HCT-116 colon)	TGI (UACC-257 melanoma)	TGI (NCI-H460 lung)	TGI (OVCAR-5 ovarian)	TGI (M14 melanoma)	TGI (SK-OV-3 ovarian)	GI50 (KM12 colon)	GI50 (RPMI-8226 leukemia)	GI50 (SR leukemia)	GI50 (RXF 393 renal)	GI50 (HCT-116 colon)	GI50 (UACC-257 melanoma)	GI50 (NCI-H460 lung)	GI50 (OVCAR-5 ovarian)	GI50 (M14 melanoma)	GI50 (SK-OV-3 ovarian)
COc1cc(/C=C2\[C@H]3c4c(c(OC)c(C)c(OC)c4OC)CC(C(=O)N2Cc2ccccc2)N3C)c(OC)c(C)c1OC	> 100 µM	61.2 µM	74.4 µM	> 100 µM	> 100 µM	39.6 µM	32 µM	71.8 µM	36 µM	92 µM										
CC(C)(C)[Si](C)(C)OC1[C@@H](CNC(=O)NC(=O)CCl)O[C@@H](n2cnc3c(N)ncnc32)[C@H]1O[Si](C)(C)C(C)(C)C (some centres not stated)	1.98 µM	2.34 µM	0.562 µM	1.58 µM	1.51 µM	6.93 µM	3.21 µM	1.62 µM	2.49 µM	2.01 µM	0.897 µM	0.805 µM	0.162 µM	0.859 µM	0.795 µM	2.65 µM	1.24 µM	0.818 µM	1.07 µM	1.05 µM
CCN(CC)CCCCCCNc1cccc2cc(Br)cnc12	14.3 µM	15.5 µM	12.6 µM	15.1 µM	14.2 µM	9.36 µM	16.5 µM	18.9 µM	3.93 µM	26.8 µM	3.56 µM	3.81 µM	3.04 µM	4.52 µM	3.39 µM	3.28 µM	4.25 µM	6.25 µM	2.05 µM	13.2 µM
CC(O)CCCOC(c1ccccc1)(c1ccccc1)c1ccccc1 (configuration not stated)	27.8 µM	> 55.6 µM	> 57.4 µM	29.2 µM	26.9 µM	30.4 µM	30.6 µM	30.5 µM	29.1 µM	30.8 µM										
CC(C)[C@H](O)C(=O)N[C@@H](C)C(=O)N[C@@H]1C(=O)N(C)CCc2ccccc21	> 100 µM	> 100 µM	> 100 µM	> 100 µM	> 100 µM	> 100 µM	> 100 µM	> 100 µM	> 100 µM	> 100 µM	> 100 µM	> 100 µM	> 100 µM	> 100 µM	> 100 µM	> 100 µM	> 100 µM	> 100 µM	> 100 µM	> 100 µM
CC(C)CC(C/C=C1/CC(CO)(COC(=O)C(C)(C)C)OC1=O)CC(C)C (configuration not stated)	29.3 µM and 33.2 µM	54.5 µM and 21.2 µM	26.4 µM	43.8 µM and 32.9 µM	29.5 µM and 30.9 µM	31.3 µM and 31 µM	17.8 µM and 5.69 µM	24.5 µM	28 µM and 26.2 µM	39.7 µM	13.7 µM and 14.8 µM	17.1 µM and 3.85 µM								
